System: wild-type (WT) murine embryonic fibroblasts (MEFs)
Assay: Untargeted LC/MS/MS proteomics of EVs from WT MEFs exposed 24 hours to drug, compared with untreated WT MEFs
Assay type: cell-based, mouse
Procedure: Methods for isolation and purification of exosomes and extracellular vesicles (EV) were extensively reviewed. Experiments were performed to arrive at a robust and reproducible protocol. The protocol used herein is that set forth in Théry et al, 2006, which is incorporated by reference for it teaching of this protocol. This protocol involves depleting serum-derived EVs from cell culture media by overnight ultracentrifugation and exchanging media for 1% FBS EV-depleted media. Media is then collected from cells following a 24-hour conditioning period and EVs are isolated by 18-hour ultracentrifugation at 100,000 g (FIG. 1A).
EVs were isolated from media of cultured murine embryonic fibroblasts (MEFs) prepared in-house according to protocols described by Xu 2005 from DYT1 knockin mice (Tor1a^delGAG/+) (Goodchild R E, et al. (2005) Neuron. 48:923-932) and littermate wild-type (WT) controls. The cultured MEFs from the DYT1 mice were exposed for 24 hours to Ritonavir (RTV) while the MEFs from WT mice were exposed to vehicle, ISRIB, or Salubrinal (SAL). The EVs isolated from these WT cells and DYT1 were characterized by untargeted proteomics and RNA-seq to identify differentially expressed proteins and RNAs as candidate biomarkers. Experimenter and Proteomics core staff were blinded to genotype of cell cultures throughout preparation and analysis phases. EV isolation was confirmed by Western immunoblot documenting presence of the exosomal marker (TSG101) and absence of the endoplasmic reticulum (ER) marker (CANX) (FIG. 1B (Cohort 1) and FIG. 1C (Cohort 2)).
Following the bicinchoninic acid assay (BCA) analysis and Western immunoblot of a portion of samples for QC, 11.6 μg-129.2 μg of EV protein lysates in RIPA buffer were sent to the Duke Proteomics and Metabolomics Shared Resource core facility for LC/MS/MS quantitative proteomic analysis. Samples were first normalized to 20 μg and spiked with undigested casein at a total of 40 fmol/μg, 80 fmol/μg, or 160 fmol/μg, then reduced with 10 mM dithiolthreitol for 30 minute at 80° C. and alkylated with 20 mM iodoacetamide for 30 minutes at room temperature. Next, the samples were supplemented with a final concentration of 1.2% phosphoric acid and 741 μL of S-Trap (Protifi) binding buffer (90% MeOH/100 mM […]). Proteins were trapped on the S-Trap, digested using 20 ng/μL sequencing grade trypsin (Promega) for 1 hour at 47° C., and eluted using 50 mM TEAB, followed by 0.2% FA, and lastly using 50% CAN/0.2% FA. All samples were then lyophilized to dryness and resuspended in 40 μL 1% TFA/2% acetonitrile containing 12.5 fmol/μL yeast alcohol dehydrogenase (ADH_YEAST). A QC Pool was created from 3 uL of each sample. All QC Pools were run periodically throughout the acquisition period.
Quantitative LC/MS/MS was performed on 2 μL of each sample, using a nanoAcquity UPLC system (Waters Corp) coupled to a Thermo Orbitrap Fusion Lumos high resolution accurate mass tandem mass spectrometer (Thermo) via a nanoelectrospray ionization source. Briefly, the sample was first trapped on a Symmetry C18 20 mm×180 μm trapping column (5 μL/min at 99.9/0.1 v/v water/acetonitrile), after which the analytical separation was performed using a 1.8 μm Acquity HSS T3 C18 75 μm×250 mm column (Waters Corp.) with a 90 minute linear gradient of 5% to 30% acetonitrile with 0.1% formic acid at a flow rate of 400 nanoliters/minute (nL/min) with a column temperature of 55° C. Data collection on the Fusion Lumos mass spectrometer was performed in a data-dependent acquisition (DDA) mode of acquisition with a r=120,000 (@ m/z 200) full MS scan from m/z 375-1500 with a target AGC value of 2e5 ions. MS/MS scans were acquired at Rapid scan rate (Ion Trap) with an AGC target of 5e3 ions and a max injection time of 100 ms. The total cycle time for MS and MS/MS scans was 2 seconds. A 20 second dynamic exclusion was employed to increase depth of coverage. The total analysis cycle time for each sample injection was approximately 2 hours. […]

[1] = EV protein P09528, Ferritin heavy chain

In the case of `O=C(COc1ccc(Cl)cc1)NC1CCC(NC(=O)COc2ccc(Cl)cc2)CC1` (centres unmarked) [ISRIB], the “ISRIB Direction Same as dE?” value (EV protein Akr1b1 (P45376)) is reported as “yes”, the “ISRIBvWT Z Score” value (EV protein Akr1b1 (P45376)) is reported as −0.22 and the “ISRIB Direction Same as dE?” value (EV protein Aldh2 (P47738)) is reported as “yes”. The “ISRIBvWT Z Score” value (EV protein Aldh2 (P47738)) was −7.25, the “ISRIBvWT Z Score” value (EV protein Cnn3 (Q9DAW9)) was 2.76 and the “ISRIB Direction Same as dE?” value (EV protein Cnot1 (Q6ZQ08)) was “yes”. The “ISRIBvWT Z Score” value (EV protein Cnot1 (Q6ZQ08)) was −2.56, the “ISRIB Direction Same as dE?” value (EV protein Col5a1 (Q88207)) was “yes” and the “ISRIBvWT Z Score” value (EV protein Col5a1 (Q88207)) was 0.06. For the same compound, the “ISRIB Direction Same as dE?” value (EV protein Copb2 (Q55029)) was “yes”, the “ISRIBvWT Z Score” value (EV protein Copb2 (Q55029)) was −1.11 and the “ISRIBvWT Z Score” value (EV protein Cryab (P23927)) was 0.39. For the same compound, the “ISRIBvWT Z Score” value (EV protein Cxadr (P97792)) was 1.72, the “ISRIBvWT Z Score” value (EV protein D3YXG0) was −2.25 and the “ISRIB Direction Same as dE?” value (EV protein Dars (Q922B2)) was “yes”. For the same compound, the “ISRIBvWT Z Score” value (EV protein Dars (Q922B2)) was −1.13, the “ISRIB Direction Same as dE?” value (EV protein Dctn2 (Q99KJ8)) was “yes” and the “ISRIBvWT Z Score” value (EV protein Dctn2 (Q99KJ8)) was −0.53. For the same compound, the “ISRIB Direction Same as dE?” value (EV protein Ddx3x (Q62167)) was “yes”, the “ISRIBvWT Z Score” value (EV protein Ddx3x (Q62167)) was −1.08 and the “ISRIB Direction Same as dE?” value (EV protein Ddx5 (Q61656)) was “yes”. For the same compound, the “ISRIBvWT Z Score” value (EV protein Ddx5 (Q61656)) was −0.92, the “ISRIB Direction Same as dE?” value (EV protein Ddx39b (Q9Z1N5)) was “yes” and the “ISRIBvWT Z Score” value (EV protein Ddx39b (Q9Z1N5)) was −1.12. For the same compound, the “ISRIB Direction Same as dE?” value (EV protein Dhx9 (Q70133)) was “yes”, the “ISRIBvWT Z Score” value (EV protein Dhx9 (Q70133)) was −1.27 and the “ISRIB Direction Same as dE?” value (EV protein Dhx15 (Q35286)) was “yes”. For the same compound, the “ISRIBvWT Z Score” value (EV protein Dhx15 (Q35286)) was −1.19, the “ISRIBvWT Z Score” value (EV protein Esyt1 (Q3U7R1)) was 0.18 and the “ISRIB Direction Same as dE?” value (EV protein Exoc4 (Q35382)) was “yes”. For the same compound, the “ISRIBvWT Z Score” value (EV protein Exoc4 (Q35382)) was −1.51, the “ISRIBvWT Z Score” value (EV protein Fth1 P09528) was −3.46 and the “ISRIBvWT Z Score” value (EV protein Fus (P56959)) was 0.85. For the same compound, the “ISRIBvWT Z Score” value (EV protein Gsto1 (Q09131)) was 0.04, the “ISRIB Direction Same as dE?” value (EV protein Hist1h3a (P68433)) was “yes” and the “ISRIBvWT Z Score” value (EV protein Hist1h3a (P68433)) was −0.97. The “ISRIB Direction Same as dE?” value (EV protein Hnrnpf (Q9Z2X1)) was “yes”, the “ISRIBvWT Z Score” value (EV protein Hnrnpf (Q9Z2X1)) was −0.18 and the “ISRIBvWT Z Score” value (EV protein Hnrnph1 (Q35737)) was 2.47. For the same compound, the “ISRIB Direction Same as dE?” value (EV protein Idh2 (P54071)) was “yes”, the “ISRIBvWT Z Score” value (EV protein Idh2 (P54071)) was −2.01 and the “ISRIBvWT Z Score” value (EV protein Impa1 (Q55023)) was 1.73. For the same compound, the “ISRIBvWT Z Score” value (EV protein Ipo7 (Q9EPL8)) was 0.30, the “ISRIB Direction Same as dE?” value (EV protein Ipo11 (Q8K2V6)) was “yes” and the “ISRIBvWT Z Score” value (EV protein Ipo11 (Q8K2V6)) was −1.97. The “ISRIBvWT Z Score” value (EV protein Itgb3 (Q54890)) was 0.14, the “ISRIBvWT Z Score” value (EV protein Itm2b Q89051) was −2.13 and the “ISRIB Direction Same as dE?” value (EV protein Itpa (Q9D892)) was “yes”. For the same compound, the “ISRIBvWT Z Score” value (EV protein Itpa (Q9D892)) was −1.25, the “ISRIB Direction Same as dE?” value (EV protein Kpna4 (Q35343)) was “yes” and the “ISRIBvWT Z Score” value (EV protein Kpna4 (Q35343)) was −3.18. For the same compound, the “ISRIB Direction Same as dE?” value (EV protein Lipg (Q9WVG5)) was “yes”, the “ISRIBvWT Z Score” value (EV protein Lipg (Q9WVG5)) was −2.47 and the “ISRIB Direction Same as dE?” value (EV protein Ltbp1 (Q8CG19)) was “yes”. For the same compound, the “ISRIBvWT Z Score” value (EV protein Ltbp1 (Q8CG19)) was 2.17, the “ISRIB Direction Same as dE?” value (EV protein Mcm2 (P97310)) was “yes” and the “ISRIBvWT Z Score” value (EV protein Mcm2 (P97310)) was −2.10. The “ISRIBvWT Z Score” value (EV protein Mdk (P12025)) was 1.33, the “ISRIB Direction Same as dE?” value (EV protein Mtap (Q9CQ65)) was “yes” and the “ISRIBvWT Z Score” value (EV protein Mtap (Q9CQ65)) was −0.85. For the same compound, the “ISRIBvWT Z Score” value (EV protein Myo18a) was 2.27, the “ISRIBvWT Z Score” value (EV protein Nrbp1 (Q99J45)) was 0.18 and the “ISRIBvWT Z Score” value (EV protein Otub1 (Q7TQ..)) was 2.26. The “ISRIB Direction Same as dE?” value (EV protein Otub1 (Q7TQB)) was “yes”, the “ISRIBvWT Z Score” value (EV protein Otub1 (Q7TQB)) was −2.26 and the “ISRIB Direction Same as dE?” value [1] was “yes”. For the same compound, the “ISRIBvWT Z Score” value [1] was −3.46 and the “ISRIB Direction Same as dE?” value (EV protein P27612, Phospholipase A-2-activating protein) was “yes”.
